Assay results published in the Kinase Knowledgebase extract (Sharma et al. 2016).
Several values for one entry are separate records, joined by “and”; a condition that tells them apart may be missing. Equal entries are not always repeated. Blank lines part the entries; values can stand above or below the molecule they belong to.

Assays:
[1] = molecular target: MAPK14 (UniProt Q16539); experiment: p38 alpha Kinase Inhibition Assay; conditions: for inhibition: concentration not given here
[2] = molecular target: EGFR (UniProt P00533)
EGFR, sequence (P00533 whole entry, looked up): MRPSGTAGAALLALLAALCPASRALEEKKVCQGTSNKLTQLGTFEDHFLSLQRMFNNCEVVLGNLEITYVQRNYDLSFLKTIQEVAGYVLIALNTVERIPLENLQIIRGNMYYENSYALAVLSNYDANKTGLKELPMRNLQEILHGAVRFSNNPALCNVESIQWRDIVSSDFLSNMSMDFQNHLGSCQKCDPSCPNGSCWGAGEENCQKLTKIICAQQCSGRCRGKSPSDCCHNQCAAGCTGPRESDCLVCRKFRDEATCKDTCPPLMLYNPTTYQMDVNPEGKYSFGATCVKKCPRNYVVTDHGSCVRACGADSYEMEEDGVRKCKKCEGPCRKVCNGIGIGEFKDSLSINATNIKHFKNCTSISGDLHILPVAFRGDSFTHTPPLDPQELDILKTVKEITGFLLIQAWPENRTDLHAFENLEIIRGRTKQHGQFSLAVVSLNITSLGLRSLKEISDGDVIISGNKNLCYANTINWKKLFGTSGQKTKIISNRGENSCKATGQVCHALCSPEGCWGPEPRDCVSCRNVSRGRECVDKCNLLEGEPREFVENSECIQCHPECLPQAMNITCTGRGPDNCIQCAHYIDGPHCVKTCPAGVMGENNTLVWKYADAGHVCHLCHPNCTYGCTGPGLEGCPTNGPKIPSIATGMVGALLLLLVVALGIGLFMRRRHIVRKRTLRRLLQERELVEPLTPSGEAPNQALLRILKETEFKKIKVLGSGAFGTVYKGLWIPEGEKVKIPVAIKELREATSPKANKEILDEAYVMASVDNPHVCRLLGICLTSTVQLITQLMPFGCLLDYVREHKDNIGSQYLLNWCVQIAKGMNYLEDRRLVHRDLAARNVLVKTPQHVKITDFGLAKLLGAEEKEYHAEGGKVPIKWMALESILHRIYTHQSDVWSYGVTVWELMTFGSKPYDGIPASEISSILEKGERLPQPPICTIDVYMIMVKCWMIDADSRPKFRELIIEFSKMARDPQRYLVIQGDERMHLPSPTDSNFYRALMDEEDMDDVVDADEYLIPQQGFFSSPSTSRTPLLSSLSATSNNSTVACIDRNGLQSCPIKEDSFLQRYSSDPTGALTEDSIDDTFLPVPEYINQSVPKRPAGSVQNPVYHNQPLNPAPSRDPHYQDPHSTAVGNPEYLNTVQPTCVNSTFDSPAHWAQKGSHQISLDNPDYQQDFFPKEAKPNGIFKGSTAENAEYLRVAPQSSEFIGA

MAPK14, sequence (Q16539 whole entry, looked up): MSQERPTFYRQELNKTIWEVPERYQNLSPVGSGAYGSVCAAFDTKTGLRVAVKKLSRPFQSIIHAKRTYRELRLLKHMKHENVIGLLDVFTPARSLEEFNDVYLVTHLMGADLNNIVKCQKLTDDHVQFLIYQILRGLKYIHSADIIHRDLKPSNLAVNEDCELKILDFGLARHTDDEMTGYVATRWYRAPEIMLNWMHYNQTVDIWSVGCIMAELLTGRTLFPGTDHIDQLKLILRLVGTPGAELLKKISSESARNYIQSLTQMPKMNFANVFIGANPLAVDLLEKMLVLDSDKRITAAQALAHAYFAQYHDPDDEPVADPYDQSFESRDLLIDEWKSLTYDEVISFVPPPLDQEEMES

Compound: O=C(c1ccc2[nH]ccc2c1)N1CCC(Cc2ccccc2)CC1
IC50 [2]: > 500 µM | IC50 [1]: 0.15 to 0.242 µM and 0.523 to 0.577 µM

Compound: O=C(c1ccc2nc[nH]c2c1)N1C2CCC1CC(Cc1ccccc1)C2 (configuration not stated)
IC50 [1]: 2.15 µM

Compound: COc1cc2[nH]ccc2cc1C(=O)N1C2CCC1CC(Cc1ccccc1)C2 (configuration not stated)
inhibition [1]: 63%

Compound: O=C(c1ccc2ccn(C(=O)c3ccncc3)c2c1)N1CCC(Cc2ccccc2)CC1
IC50 [1]: 0.505 µM

Compound: O=C(c1ccc2c(ccn2-c2ccncc2)c1)N1CCC(Cc2ccccc2)CC1
IC50 [1]: 0.8 µM

Second part, the molecule after the results:

inhibition [1]: 51%
Compound: O=C(c1ccc2cc[nH]c2c1)N1CCC(Cc2ccc(F)cc2)C1 (configuration not stated)

IC50 [1]: 0.405 to 0.871 µM
Compound: O=C(c1ccc2c(ccn2C(=O)c2ccncc2)c1)N1CCC(Cc2ccccc2)CC1

IC50 [2]: > 500 µM
Compound: O=C(c1ccc2cc[nH]c2c1)N1CCC(Cc2ccccc2)CC1

IC50 [1]: 0.199 µM
Compound: CCNCCCn1ccc2cc(C(=O)N3CCC(Cc4ccccc4)CC3)c(Cl)cc21

IC50 [1]: 0.354 µM
Compound: CCNCCCn1ccc2cc(C(=O)N3CCC(Cc4ccc(F)cc4)CC3)ccc21

IC50 [1]: 4.97 to 5.52 µM
Compound: O=C(c1ccc2cc[nH]c2c1)N1CCN(Cc2ccccc2)CC1
